This is an account of results in paper PMC12010006, “Subnanomolar MAS-related G protein-coupled receptor-X2/B2 antagonists with efficacy in human mast cells and disease models” (Signal Transduction and Targeted Therapy, 2025).

Structures are written as SMILES. Positions of bridges follow the written chain, without caps; N, C: chain ends. Residues, ends and D or L forms follow the SMILES beside them.

The target in one experiment is T1, mouse MRGPRB2 (Mus musculus, UniProt Q3KNA1).
T1 construct: expressed in transfected cells; host or cells: 1321N1 astrocytoma cells; plasmid pLVX-IRES-MRGPRB2-mCherry (Addgene #213961)
T1 sequence (Q3KNA1 1-338): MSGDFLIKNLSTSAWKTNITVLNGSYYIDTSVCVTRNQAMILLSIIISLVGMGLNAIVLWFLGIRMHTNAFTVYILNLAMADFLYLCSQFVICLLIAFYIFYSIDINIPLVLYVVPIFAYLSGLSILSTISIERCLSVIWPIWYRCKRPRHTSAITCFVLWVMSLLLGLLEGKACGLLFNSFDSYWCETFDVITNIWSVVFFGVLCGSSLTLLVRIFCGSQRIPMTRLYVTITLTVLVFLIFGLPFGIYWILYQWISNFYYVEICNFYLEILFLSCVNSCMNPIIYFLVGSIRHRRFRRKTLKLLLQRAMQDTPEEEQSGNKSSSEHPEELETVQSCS
Further details: method as in PMID 38184723. Conditions: cited from earlier work.

The target in experiment [1] is T2, MRGPRX2 (Homo sapiens, UniProt Q96LB1).
T2 sequence (Q96LB1 1-330): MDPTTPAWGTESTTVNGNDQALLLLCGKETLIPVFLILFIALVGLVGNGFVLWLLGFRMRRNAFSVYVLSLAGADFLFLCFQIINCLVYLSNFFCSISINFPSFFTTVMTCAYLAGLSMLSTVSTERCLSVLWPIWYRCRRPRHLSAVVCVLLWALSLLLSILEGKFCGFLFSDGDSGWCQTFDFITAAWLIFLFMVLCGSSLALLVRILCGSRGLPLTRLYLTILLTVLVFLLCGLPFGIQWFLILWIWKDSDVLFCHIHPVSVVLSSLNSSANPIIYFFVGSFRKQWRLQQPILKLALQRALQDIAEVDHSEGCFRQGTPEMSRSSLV
As to the kind of experiment: β-arrestin recruitment assay (antagonist mode), β-arrestin-CHO cells recombinantly expressing MRGPRX2. Further details: expressed in transfected cells. Format: cell-based.

In experiment [2] the target is T2, MRGPRX2. Kind of experiment: Ca2+ mobilization assay, LN229 cells overexpressing MRGPRX2. It is filed as cell-based. Further details: expressed in transfected cells; host or cells: LN229 human glioblastoma cells; plasmid pLXSN-MRGPRX2 (Addgene #213960). Here is the method:
Glioblastoma LN229-MRGPRX2 stably expressing MRGPRX2 (produced by retroviral transfection) were seeded into black sterile 96-well microplates at a density of 5 × 10^4 cells/well in 200 µL of DMEM/F12-Nut Mix medium, supplemented with 10% FCS, 100 U/mL of penicillin 100 µg/mL of streptomycin, and 200 µg/mL of G418 and incubated for 18–22 h.
The next day Fluo-4 AM Solution (1 mM) (Thermo Fisher Scientific) was prepared and used to prepare cell loading dye solution consisting of 4970 µL of Hank’s Buffered Saline Solution (HBSS) buffer, 15 µL of 20% Pluronic-F and 15 µL of 1 mM Fluo-4 AM. Next, the cell medium was removed and exchanged for 40 µL of dye solution per well (final concentration of Fluo-4 AM: 3 µM). The cell plate was incubated for 60 min in the dark at room temperature, then the dye solution was removed and replaced by 189 µL HBSS. Subsequently, 1 µL of antagonist diluted in DMSO was added and incubated for 30 min at room temperature and in the dark (final DMSO concentration 0.5%, v/v). CST-14 or another agonist prepared in HBSS as well as carbachol (final concentration 100 µM) were pipetted (10 µL) using a FlexStation® 3 Multi-Mode Microplate Reader. For the determination of baseline fluorescence, HBSS buffer containing solvent of the investigated compound was used. Fluorescence was measured for 120 intervals of 1 s (number of flashes: 10) at a wavelength of 525 nm (excitation 485 nm) using the SoftMax® Pro5.1 Microplate Data Acquisition & Analysis Software. Three independent experiments were performed in duplicates. Measurements are provided in relative fluorescence units and normalized to the maximal effect of CST-14.
For orientation: Calcium flux is commonly read through the fluorescence of an indicator in the cells.

Experiment [3] has as its target T2, MRGPRX2. As to the kind of experiment: TRUPATH Gαq dissociation assay, LN229 cells expressing MRGPRX2. Further details: expressed in transfected cells; host or cells: LN229 human glioblastoma cells; plasmid pLXSN-MRGPRX2 (Addgene #213960). It is filed as cell-based. Particulars: read-out: EC50 of agonist, Gαq dissociation. Here is the method:
(§1) Fig. 3 Biological characterization of PSB-172656. a Selectivity of PSB-172656 (100 nM) for MRGPRX2 over MRGPRX1, MRGPRX3, and MRGPRX4 measured in β-arrestin assays utilizing β-arrestin-CHO cells with recombinant expression of the respective receptor. MRGPRX1 was activated by BAM-22P (8.5 µM),[19] MRGPRX2 was activated by CST-14 (1 µM), MRGPRX3 was activated by PSB-20294 (10 µM), MRGPRX4 was activated by PSB-18061 (2.6 µM).[44] Data represent mean values ± SEM of 3-4 biological replicates, performed in duplicates. […] Data are means ± SEM of 3 biological replicates, in duplicates. Statistical significance was determined by one-way ANOVA (Tukey’s multiple comparison) test (ns P > 0.05). […] Data are means ± SEM of 3 biological replicates, performed in duplicates. e Shift assay to determine inhibition type of PSB-172656 versus CST-14. […] Extrapolated data were not used for analysis but only shown for a comprehensive view. f Schild plot for the effect of PSB-172656 on the concentration-response curves for CST-14. […]
(§2) To further investigate PSB-172656 signaling, direct activation of the relevant G protein subunits, Gαq and Gαi1,[32] was studied. This was assessed using G protein dissociation assays and LN229 cells stably overexpressing MRGPRX2 while transiently expressing the investigated G protein (Fig. 3c, d).[47]

The target of experiment [4] is T2, MRGPRX2. Kind of experiment: TRUPATH Gαi1 dissociation assay, LN229 cells expressing MRGPRX2. It is filed as cell-based. Further details: expressed in transfected cells; host or cells: LN229 human glioblastoma cells; plasmid pLXSN-MRGPRX2 (Addgene #213960). Particulars: read-out: EC50 of agonist, Gαi1 dissociation. Here is the method:
as §1, §2

`C[C@@H](O)[C@@H]1NC(=O)[C@H](CCCCN)NC(=O)[C@H](Cc2c[nH]c3ccccc23)NC(=O)[C@H](Cc2ccccc2)NC(=O)[C@H](Cc2ccccc2)NC(=O)[C@H](CC(N)=O)NC(=O)[C@H](CCCCN)NC(=O)[C@@H](NC(=O)[C@@H]2CCCN2)CSSC[C@@H](C(=O)N[C@@H](CCCCN)C(=O)O)NC(=O)[C@H](CO)NC(=O)[C@H](CO)NC(=O)[C@H](Cc2ccccc2)NC1=O` [CST-14, reference compound] (H-PCKNFFWKTFSSCK-OH; disulfide 2-13; N-terminus and C-terminus assumed): at mouse MRGPRB2, the “EC80 of agonist at MRGPRB2, Ca2+ assay” value was 2 µM. Also, the “EC80 of agonist, β-arrestin assay” value at MRGPRX2 [1] is listed as 1.0 µM. The EC50 at MRGPRX2 [1] (agonist concentration-response curve, read-out: EC50 of agonist, β-arrestin assay) amounted to 0.483 µM; on MRGPRX2 [1] (without antagonist, read-out: EC50 of CST-14, shift assay) it was 0.283 ± 0.045 µM; on MRGPRX2 [2] (agonist concentration-response curve) it was 0.452 ± 0.049 µM; on MRGPRX2 [3], 0.499 ± 0.207 µM; at MRGPRX2 [4], 0.113 ± 0.016 µM. For the same compound, at MRGPRX2 [2], the “EC80 of agonist, Ca2+ assay” value worked out at 0.8 µM.
